Where “and” joins values, the source holds several entries; their conditions need not be identical. Equal entries are not always repeated. Structures can show the parent of a compound that is named as a salt. Where two headings read alike, the source gives them in different places.
Tests used:
[1] = Solubility and surface activity in PBS under physiological conditions (37° C.); type: physicochemical; conditions: PBS pH 7.4, 37° C., COR005 10 mg/ml
Experimental: Table 6 summarizes the effects of additives on the surface activity profile of COR005 acetate under physiological conditions (37° C.) that emulate the release of COR005 at the injection site.

[2] = Pharmacokinetics of IR formulations in minipigs; type: in vivo; conditions: minipig, plasma, sc; for AUC(0-t) / Tmax: minipigs
[3] = Solubility of COR005 acetate in aqueous media with additives at 25° C.; type: physicochemical; conditions: read-out: Solubility of COR005 Acetate (mg/ml) at 25° C.
Source text: Table 3 summarizes the solubility values of COR005 acetate in various aqueous media, the effects of additives such as DEX and HPB on the peptide solubility in saline and physiological conditions, as well as the PK profile of IR and MS formulations prepared with these additives in comparison to COR005 without additives as control.
Note that both media (PBS or Saline) contained physiological concentrations of chloride which indicates the incompatibility and salting out of the peptide in the presence of the chloride ion.
The relatively high solubility of COR005 acetate in 5% dextrose (in water) of greater than 500 mg/ml indicates the improved solubility of the peptide in water with dextrose. […] Note that this 1:1 diluted dextrose in saline was used as a vehicle in the IR study of COR005 acetate in rats and minipigs (the DEX:PEP ratio was 5:1).

[4] = Density, pH and surface tension of solutions (capillary method); type: physicochemical
Experimental: Tween 80 was used as a control surfactant for comparison. Densities were measured on 1 mL fixed volume samples. […] The effect of veldoreotide acetate on the pH of double distilled water (DDW) was the same at all veldoreotide acetate concentrations. The pH of DDW of 5.0 was reduced to pH 4.5. The effect of veldoreotide acetate on the density of DDW (starting density of DDW was 1.003 g/ml) was concentration dependent from 1.4 mg/ml to 21.5 mg/ml with density ranging from 0.986 to 0.998 g/ml respectively. However, at veldoreotide acetate concentrations of 45 and 102 mg/ml the density was increased above the starting density of DDW. […] The effect of veldoreotide acetate on the surface tension of DDW (starting surface tension was 64.9 dyne/cm) was consistent with veldoreotide acetate behaving as a peptide amphiphile (surfactant). The surface tension of DDW was reduced by veldoreotide acetate at maximum from 64.9 to 45 dyne/cm. In order to elucidate the meaning of this effect, Tween 80 was used as a reference surfactant. Other surfactants include Polexamer 188. The reduction of surface tension induced by Tween 80 was in the range of 40% (from 64.9 dyne/cm to about 39 dyne/cm), in comparison to veldoreotide acetate of 30% (from 64.9 dyne/cm to about 45 dyne/cm). Note that, under these experimental conditions; the effect of Tween 80 indicated a concentration-effect relationship. Whereas, the effect of veldoreotide acetate on the reduction of surface tension was at the same range for all concentrations tested.
The data of table 4 show the surface activity of highly concentrated COR005 acetate (200 mg/ml), with or without additives in WFI, which emulates the preparation conditions of the primary emulsion of the microspheres. The results of Test 1 and 2 (Table 4) show the effect of COR005 acetate on the surface tension of water. When COR005 acetate is dissolved in water the surface tension is reduced by about 36%, from 68.5 dyne/cm for the water alone to 44 dyne/cm for the solution of water with CR005 acetate at 200 mg/ml.

[5] = Emulsification of cottonseed oil and water for injection; type: physicochemical; conditions: w/o ionic surfactant or hydrotrope
Experimental: Based on its amphiphilic properties, veldoreotide acetate was evaluated by means of emulsion formulation. […] Thus, veldoreotide acetate may be considered a w/o ionic surfactant or hydrotrope with a hydrophilic lipophilic balance (HLB) of 6.
The samples were mixed using 25G syringe and vortexed at room temperature.
Veldoreotide was formulated as a water in oil emulsion using 80% (wt %) cottonseed oil, 20% (wt %) water for injection (WFI) and 1% (wt %) veldoreotide acetate. Specifically, 10 mg of veldoreotide acetate was dissolved in 200 uL WFI in a 5 mL glass vial, 800 mg of cottonseed oil was added and the resulting mixture was stirred under magnetic stirring at room temperature for 15 minutes at 1000 rpm. The emulsion was then viewed under the light microscope and stored under refrigeration. The resulting emulsion was stable and found to be injectable via 27G needle.

[6] = 0.1 mg/kg, IR, SC 0.1 mg/Kg, DEX:PEP 5:1 saline
[7] = 0.1 mg/kg, IR, SC 0.1 mg/Kg, Lactic acid buffer
[8] = 0.4 mg/kg, IR, SC 0.4 mg/Kg, DEX:PEP 5:1 saline
[9] = 0.4 mg/kg, IR, SC 0.4 mg/Kg, HPB:PEP 15:1 saline
[10] = 0.4 mg/kg, IR, SC 0.4 mg/Kg, Lactic acid buffer
[11] = 1.4 mg/ml in DDW pH 4.5, 25° C.
[12] = 102 mg/ml in DDW pH 4.5, 25° C.
[13] = 200 mg/ml + 50 mg/ml HPBCD in WFI (HPB:PEP 1:4), 5° C.
[14] = 200 mg/ml + 100 mg/ml HPBCD in WFI (HPB:PEP 1:2), 5° C.
[15] = 200 mg/ml in 5% Dextrose in WFI (DEX:PEP 1:8), 5° C.

Surface tension (dyne/cm) ([1]; HPB:PEP 1:4): 39 dyne/cm | Surface tension (dyne/cm) ([1]; no additive): 34 dyne/cm | Cmax ([2]; 0.1 mg/kg, IR, SC, 0.1 mg/Kg, DEX:PEP 5:1 saline): 53 ng/mL | AUC(0-t) [2, 6]: 53 ng·h/mL | Tmax [2, 6]: 60 min | AUC(0-t) [2, 7]: 26 ng·h/mL | Tmax [2, 7]: 30 min | Cmax ([2]; 0.1 mg/kg, pH 4, IR, Lactic acid buffer pH 4): 29 ng/mL | AUC(0-t) [2, 8]: 205 ng·h/mL | Tmax [2, 8]: 30 min | AUC(0-t) [2, 9]: 198 ng·h/mL | Tmax [2, 9]: 15 min | AUC(0-t) [2, 10]: 161 ng·h/mL | Tmax [2, 10]: 60 min | solubility ([3]; 0.45% NaCl with […] dextrose (isotonic), Isotonic 0.45NS (0.45% NaCl) 2.5D Dextrose […], DEX:PEP 5:1): 6 to 7 mg/mL | solubility ([3]; 0.45% NaCl, 0.45NS - 0.45% NaCl, additives none): 3 mg/mL | solubility ([3]; 5% dextrose in water (isotonic), 5% Dextrose Isotonic, additives none): ≥ 300 mg/mL | solubility ([3]; isotonic PBS pH 7.4, pH 7.4, PBS pH 7.4 Isotonic, HPB:PEP 1:1): 4.5 mg/mL | solubility ([3]; isotonic PBS pH 7.4, pH 7.4, PBS pH 7.4 Isotonic, HPB:PEP 1:4): 2.5 mg/mL | solubility ([3]; isotonic PBS pH 7.4, pH 7.4, PBS pH 7.4 Isotonic, HPB:PEP 10:1): 10 mg/mL | solubility ([3]; isotonic PBS with HPB, pH 7.4, PBS pH 7.4 Isotonic, HPB:PEP 1:2): 2.5 mg/mL | solubility ([3]; isotonic PBS with dextrose, pH 7.4, PBS pH 7.4 Isotonic, DEX:PEP 1:8): 2 mg/mL | solubility ([3]; isotonic PBS with dextrose, pH 7.4, PBS pH 7.4 Isotonic, DEX:PEP 5:1): 1.6 mg/mL | solubility ([3]; isotonic saline, Saline Isotonic, HPB:PEP 15:1): 10 mg/mL | solubility ([3]; isotonic saline, Saline Isotonic, Lys-HCl:PEP 4:1): 1.7 mg/mL | solubility ([3]; lactic acid buffer pH 4.0, isotonic, pH 4, Lactic acid buffer pH 4.0 Isotonic, MAN:PEP 20:1, HPB:PEP 15:1, Est. = estimated by UV-Vis): 500 mg/mL | solubility ([3]; lactic acid buffer pH 4.0, isotonic, pH 4, Lactic acid buffer pH 4.0 Isotonic, Mannitol MAN:PEP 20:1, Est. = estimated by UV-Vis): 500 mg/mL | solubility ([3]; normal saline (0.9% NaCl), NS - 0.9% NaCl, additives none): 1 to 2 mg/mL | solubility ([3]; water, additives none): ≥ 300 mg/mL | % change in surface tension compared to baseline [4, 11]: −30% | Density (g/ml) Weighted 1 ml [4, 11]: 0.986 g/mL | Surface tension (dyne/cm) capillary method [4, 11]: 45.2 dyne/cm | density of DDW solution ([4]; 1.4 mg/ml to 21.5 mg/ml, starting density of DDW 1.003 g/ml): 0.986 to 0.998 g/mL | % change in surface tension compared to baseline ([4]; 12 mg/ml in DDW pH 4.5, 25° C.): −28% | Density (g/ml) Weighted 1 ml ([4]; 12 mg/ml in DDW pH 4.5, 25° C.): 0.994 g/mL | Surface tension (dyne/cm) capillary method ([4]; 12 mg/ml in DDW pH 4.5, 25° C.): 46.9 dyne/cm | % change in surface tension compared to baseline ([4]; 21 mg/ml in DDW pH 4.5, 25° C.): −27% | Density (g/ml) Weighted 1 ml ([4]; 21 mg/ml in DDW pH 4.5, 25° C.): 0.998 g/mL | Surface tension (dyne/cm) capillary method ([4]; 21 mg/ml in DDW pH 4.5, 25° C.): 47.1 dyne/cm | % change in surface tension compared to baseline ([4]; 45 mg/in DDW pH 4.5, 25° C.): −29% | Density (g/ml) Weighted 1 ml ([4]; 45 mg/in DDW pH 4.5, 25° C.): 1.003 g/mL | Surface tension (dyne/cm) capillary method ([4]; 45 mg/in DDW pH 4.5, 25° C.): 45.97 dyne/cm | % change in surface tension compared to baseline [4, 12]: −24% | Density (g/ml) Weighted 1 ml [4, 12]: 1.015 g/mL | Surface tension (dyne/cm) capillary method [4, 12]: 49.3 dyne/cm | % change in surface tension compared to baseline [4, 13]: −34% | Density (g/ml) Weighted 1 ml [4, 13]: 1.04 g/mL | Surface tension (dyne/cm) capillary method [4, 13]: 45 dyne/cm | % change in surface tension compared to baseline [4, 14]: −26% | Density (g/ml) Weighted 1 ml [4, 14]: 1.12 g/mL | Surface tension (dyne/cm) capillary method ([4]; 200 mg/ml + 100 mg/ml HPBCD in WFI (HPB:PEP 1:2), 5° C., acetate salt): 51 dyne/cm | Surface tension (dyne/cm) capillary method ([4]; 200 mg/ml + 100 mg/ml HPBCD in WFI (HPB:PEP 1:2), 5° C., listed as peptide, acetate salt): 52 dyne/cm and 51 dyne/cm | % change in surface tension compared to baseline [4, 15]: −14% | Density (g/ml) Weighted 1 ml [4, 15]: 1.03 g/mL | Surface tension (dyne/cm) capillary method ([4]; 200 mg/ml in 5% Dextrose in WFI (DEX:PEP 1:8), 5° C., acetate salt): 54 dyne/cm | Surface tension (dyne/cm) capillary method ([4]; 200 mg/ml in 5% Dextrose in WFI (DEX:PEP 1:8), 5° C., listed as peptide, acetate salt): 54 dyne/cm | Density (g/ml) Weighted 1 ml ([4]; 200 mg/ml in WFI, 5° C.): 1.03 g/mL | Surface tension (dyne/cm) capillary method ([4]; 200 mg/ml in WFI, 5° C.): 44 dyne/cm | % change in surface tension compared to baseline ([4]; 200 mg/ml in WFI, 5° C., acetate salt): −36% | % change in surface tension compared to baseline ([4]; 200 mg/ml in WFI, 5° C., listed as COR005 acetate, acetate salt): about 36% | surface tension of DDW solution ([4]; DDW pH 5.0, 25° C., baseline 64.9 dyne/cm (text summary, concentration not specified), acetate salt): about 45 dyne/cm | reduction of surface tension of water ([4]; DDW, 25° C., baseline 64.9 dyne/cm, acetate salt): 30% | pH of DDW solution ([4]; all concentrations, DDW pH 5.0 before): 4.5 | hydrophilic lipophilic balance (HLB) [5]: 6
Structure (SMILES): C[C@@H](O)[C@@H]1NC(=O)[C@H](CCCCN)NC(=O)[C@@H](Cc2c[nH]c3ccccc23)NC(=O)[C@H](Cc2c[nH]c3ccccc23)NC(=O)[C@H](Cc2ccccc2)NC(=O)CCCNC(=O)CCCN(CC(N)=O)C(=O)[C@H](Cc2ccccc2)NC1=O [Veldoreotide Acetate, Cyclo(-γ-aminobutyryl-L-phenylalanyl-L-tryptophanyl-D-tryptophanyl-L-lysyl-L-threonyl-L-phenylalanyl-N-carbamoylmethyl-γ-aminobutyryl), acetate salt]
